How the values were obtained:
[1] = test system: CD46 expression; assay: CD46 expression by RNA-sequencing in paired tumor biopsies before and after therapy; settings: paired biopsies; for CD46 expression, Post-Treatment Biopsy: RNA-seq log2-transformed counts;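 as to all read-outs here: FFPE human tumor biopsies, exome-capture RNA-seq, reads aligned to GRCh37, counts normalized for GC content, length and depth, summed per gene, log2-transformed, samples paired before versus after therapy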
Method: Gene expression was determined by RNA-sequencing from formalin-fixed, paraffin-embedded (FFPE) tumor samples using an exome capture-based protocol. Briefly, total nucleic acid was extracted from FFPE solid tumor samples. The RNA sample was treated with DNAse and reverse transcribed. cDNA was captured with a custom probe set targeting the human exome. A library was prepared from the captured cDNA and sequenced on the Illumina platform. Sequence read were aligned to GRCh37 using Kallisto and normalized to quantify gene expression. Specifically, transcript counts were corrected for GC content and length using quantile normalization and adjusted for sequencing depth via a size factor method. Normalized counts in protein coding transcripts covered by the exome panel were then summed to obtain gene-level counts. Subsequent expression analyses were performed on log2-transformed counts.

[2] = test system: CD46 expression; assay: CD46 expression by RNA-sequencing in unpaired pre-treatment and post-treatment tumor biopsies; format: in vivo, human; settings: for CD46 expression Post: post-treatment biopsies
[3] = Non-Small Cell Lung Cancer, Post minus Pre, unpaired biopsies, log2-transformed counts
[4] = Non-Small Cell Lung Cancer, post- vs pre-treatment unpaired biopsies
[5] = Non-Small Cell Lung Cancer, unpaired, RNA-seq log2-transformed normalized counts
[6] = Breast Cancer, Post minus Pre, unpaired biopsies, log2-transformed counts
[7] = Breast Cancer, post- vs pre-treatment unpaired biopsies
[8] = Breast Cancer, unpaired, RNA-seq log2-transformed normalized counts

CC(=O)O[C@H]1C(=O)[C@@]2(C)[C@H]([C@H](OC(=O)c3ccccc3)[C@]3(O)C[C@H](OC(=O)[C@H](O)[C@@H](NC(=O)c4ccccc4)c4ccccc4)C(C)=C1C3(C)C)[C@]1(OC(C)=O)CO[C@@H]1C[C@@H]2O [paclitaxel]
CD46 expression diff (post minus pre) ([1]; Breast Cancer): −0.09 | Percent Change in CD46 expression ([1]; Breast Cancer): −1.4% | CD46 expression, Post-Treatment Biopsy ([1]; Breast Cancer): 6.12 | CD46 expression diff (post minus pre) ([1]; Endometrial Cancer): 0.19 | Percent Change in CD46 expression ([1]; Endometrial Cancer): 3.2% | CD46 expression, Post-Treatment Biopsy ([1]; Endometrial Cancer): 6.01 | CD46 expression diff (post minus pre) ([1]; Esophageal Cancer): 0.05 | Percent Change in CD46 expression ([1]; Esophageal Cancer): 0.8% | CD46 expression, Post-Treatment Biopsy ([1]; Esophageal Cancer): 6.02 | CD46 expression diff (post minus pre) ([1]; Non-Small Cell Lung Cancer): −0.23 | Percent Change in CD46 expression ([1]; Non-Small Cell Lung Cancer): −3.7% | CD46 expression, Post-Treatment Biopsy ([1]; Non-Small Cell Lung Cancer): 5.89 | CD46 expression diff (post minus pre) ([1]; Ovarian Cancer): −0.04 | Percent Change in CD46 expression ([1]; Ovarian Cancer): −0.8% | CD46 expression, Post-Treatment Biopsy ([1]; Ovarian Cancer): 5.67 | CD46 expression diff ([2]; Breast Cancer, post minus pre, unpaired biopsies): −0.15 | CD46 expression Percentage change ([2]; Breast Cancer, post vs pre, unpaired biopsies): −2.4% | CD46 expression Post ([2]; Breast Cancer, log2-transformed RNA-seq counts): 6.04 | CD46 expression diff ([2]; Endometrial Cancer, Post minus Pre, unpaired biopsies, log2-transformed counts): 0.03 | CD46 expression Percentage change ([2]; Endometrial Cancer, post- vs pre-treatment unpaired biopsies): 0.6% | CD46 expression Post ([2]; Endometrial Cancer, unpaired, RNA-seq log2-transformed normalized counts): 5.85 | CD46 expression diff ([2]; Esophageal Cancer, Post minus Pre, unpaired biopsies, log2-transformed counts): −0.13 | CD46 expression Percentage change ([2]; Esophageal Cancer, post- vs pre-treatment unpaired biopsies): −2.1% | CD46 expression Post ([2]; Esophageal Cancer, unpaired, RNA-seq log2-transformed normalized counts): 5.79 | CD46 expression diff ([2]; Gastric Cancer, Post minus Pre, unpaired biopsies, log2-transformed counts): 0.04 | CD46 expression Percentage change ([2]; Gastric Cancer, post- vs pre-treatment unpaired biopsies): 0.7% | CD46 expression Post ([2]; Gastric Cancer, unpaired, RNA-seq log2-transformed normalized counts): 5.82 | CD46 expression diff ([2]; Head and Neck Squamous Cell Carcinoma, Post minus Pre, unpaired biopsies, log2-transformed counts): 0.13 | CD46 expression Percentage change ([2]; Head and Neck Squamous Cell Carcinoma, post- vs pre-treatment unpaired biopsies): 2.4% | CD46 expression Post ([2]; Head and Neck Squamous Cell Carcinoma, unpaired, RNA-seq log2-transformed normalized counts): 5.68 | CD46 expression diff [2, 3]: −0.07 | CD46 expression Percentage change [2, 4]: −1.1% | CD46 expression Post [2, 5]: 6.00 | CD46 expression diff ([2]; Ovarian Cancer, Post minus Pre, unpaired biopsies, log2-transformed counts): −0.01 | CD46 expression Percentage change ([2]; Ovarian Cancer, post- vs pre-treatment unpaired biopsies): −0.1% | CD46 expression Post ([2]; Ovarian Cancer, unpaired, RNA-seq log2-transformed normalized counts): 5.73 | CD46 expression diff ([2]; Sarcoma, Post minus Pre, unpaired biopsies, log2-transformed counts): −0.09 | CD46 expression Percentage change ([2]; Sarcoma, post- vs pre-treatment unpaired biopsies): −1.7% | CD46 expression Post ([2]; Sarcoma, unpaired, RNA-seq log2-transformed normalized counts): 4.96

CC(=O)c1c(C)c2cnc(Nc3ccc(N4CCNCC4)cn3)nc2n(C2CCCC2)c1=O [palbociclib]
CD46 expression diff (post minus pre) ([1]; Breast Cancer): −0.17 | Percent Change in CD46 expression ([1]; Breast Cancer): −2.7% | CD46 expression, Post-Treatment Biopsy ([1]; Breast Cancer): 6.34 | CD46 expression diff [2, 6]: 0.01 | CD46 expression Percentage change [2, 7]: 0.2% | CD46 expression Post [2, 8]: 6.42

Nc1nc2[nH]cc(CCc3ccc(C(=O)N[C@@H](CCC(=O)O)C(=O)O)cc3)c2c(=O)[nH]1 [pemetrexed]
CD46 expression diff (post minus pre) ([1]; Non-Small Cell Lung Cancer): −0.20 | Percent Change in CD46 expression ([1]; Non-Small Cell Lung Cancer): −3.1% | CD46 expression, Post-Treatment Biopsy ([1]; Non-Small Cell Lung Cancer): 6.22 | CD46 expression diff [2, 3]: −0.11 | CD46 expression Percentage change [2, 4]: −1.8% | CD46 expression Post [2, 5]: 6.27

C[C@]12C=CC(=O)C=C1CC[C@@H]1[C@@H]2C(=O)C[C@@]2(C)[C@H]1CC[C@]2(O)C(=O)CO [prednisone]
CD46 expression diff (post minus pre) ([1]; Prostate Cancer): 0.13 | Percent Change in CD46 expression ([1]; Prostate Cancer): 2.3% | CD46 expression, Post-Treatment Biopsy ([1]; Prostate Cancer): 5.85 | CD46 expression diff [2, 3]: 0.02 | CD46 expression Percentage change [2, 4]: 0.3% | CD46 expression diff ([2]; Prostate Cancer, Post minus Pre, unpaired biopsies, log2-transformed counts): −0.10 | CD46 expression Percentage change ([2]; Prostate Cancer, post- vs pre-treatment unpaired biopsies): −1.7% | CD46 expression Post ([2]; Prostate Cancer, unpaired, RNA-seq log2-transformed normalized counts): 6.08

CNC(=O)c1cc(Oc2ccc(NC(=O)Nc3ccc(Cl)c(C(F)(F)F)c3)c(F)c2)ccn1 [regorafenib]
CD46 expression diff (post minus pre) ([1]; Colorectal Cancer): 0.25 | Percent Change in CD46 expression ([1]; Colorectal Cancer): 4.0% | CD46 expression, Post-Treatment Biopsy ([1]; Colorectal Cancer): 6.49 | CD46 expression diff ([2]; Colorectal Cancer, Post minus Pre, unpaired biopsies, log2-transformed counts): 0.19 | CD46 expression Percentage change ([2]; Colorectal Cancer, post- vs pre-treatment unpaired biopsies): 2.9% | CD46 expression Post ([2]; Colorectal Cancer, unpaired, RNA-seq log2-transformed normalized counts): 6.63

CC/C(=C(\c1ccccc1)c1ccc(OCCN(C)C)cc1)c1ccccc1 [tamoxifen]
CD46 expression diff (post minus pre) ([1]; Breast Cancer): 0.11 | Percent Change in CD46 expression ([1]; Breast Cancer): 1.7% | CD46 expression, Post-Treatment Biopsy ([1]; Breast Cancer): 6.32 | CD46 expression diff [2, 6]: 0.11 | CD46 expression Percentage change [2, 7]: 1.8% | CD46 expression Post [2, 8]: 6.38
